From patent US11759533B2, “Methods and compositions for modulating gene expression” (Wisconsin Alumni Research Foundation, priority 2017, dated 2023)

What was measured:
[1] = system: frataxin (FXN) mRNA; experiment: FXN mRNA by RT-PCR (relative to TBP) in FRDA patient cell line GM15850; format: cell-based, human; conditions: GM15850, 1 μM, 24 hours
Description: Cells were maintained in RPMI 1640 supplemented with 2 mM L-glutamine and 15% fetal bovine serum (FBS) at 37° C. in a humidified atmosphere of 5% CO2. Cell density was maintained between 200,000 cells/mL and 1,000,000 cells/mL. Cell growth and morphology were monitored by phase contrast microscopy and cell viability by trypan blue exclusion. To maintain cell density, cells were passaged by centrifuging at 500 g for 3 minutes and resuspending the cells in fresh media. To avoid cross-contamination, cells were handled separately with separate bottles of media. Relevant data were obtained from cell lines passaged between P9 and P12.
To prepare agents for treatment of cells, each agent or agent mixture tested was dissolved in DMSO. […] 500,000 cells ells were seeded at 500,000 cells/mL and treated 24 h with agents in DMSO (0.1-0.2% DMSO final concentration). For the 24 hour treatment, cell media was changed immediately before treatment with agent and agent was added at the zero time point. The media was not changed during the 24 hour treatment time period.
After treatment with the agents or agent mixtures, cells were harvested and total RNA was purified with the RNeasy Mini Kit (Qiagen, Valencia, Calif.), including on-column DNase I treatment (ZYMO Research, Catalog number E1010), according to manufacturer's directions. […]

[2] = system: FXN-GAA-Luc; experiment: Luciferase reporter assay, FXN-GAA-Luc line (~310 GAA repeats); format: cell-based; conditions: 24 hours, 2 μM unless otherwise indicated (Agent 4 at 1 or 2)
Description: This reporter, which includes a ˜310 GAA repeat, recapitulates both the transcriptional repression and the heterochromatin formation at the endogenous FXN locus that are hallmarks of the FRDA disease.
Cells containing FXN-Luc or FXN-GAA-Luc were seeded onto 24-well plates at a confluency of 20%. The next day, media was refreshed and cells were treated 24 hours with the indicated compound at the indicated concentration. Next, cell lysates were harvested and analyzed with the Luciferase Assay System (Promega, Madison, Wis.) per manufacturer's directions on a Synergy H4 Hybrid Reader (BioTek, Winooski, Vt.).

[3] = system: FXN protein; experiment: Immunoblot for FXN protein in GM15850 cells; format: cell-based, human; conditions: GM15850, 24 hours, 1 μM (Agent 4: 0.1, 0.5 or 1 μM)
Description: (§1) In FIG. 3A, “50” refers to GM15850 cells and in FIG. 3B, “51” refers to GM15851 cells. Cells were treated as in Example 4.
(§2) Total cell extracts from cell lines were used for immunoblot analysis. Antibodies to frataxin (abcam ab110328, 1:250 dilution) or alpha-Tubulin (Cell Signaling Technologies 2144, 1:1000 dilution) were used. Signal was detected by chemiluminescence with HRP-conjugated secondary antibodies (Bio-Rad 172-1011, 1:2000 for anti-mouse frataxin and GE NA934V, 1:2000 for anti-rabbit alpha-Tubulin).

[4] = system: FXN protein; experiment: Immunoblot for FXN protein in GM15851 cells; format: cell-based, human; conditions: GM15851, 24 hours, 1 μM (Agent 4: 0.1, 0.5 or 1 μM)
Description: as §1, §2

Row | SMILES | increase in FXN mRNA levels [1] | luciferase activity [2] | FXN protein (immunoblot) [3] | FXN protein (immunoblot) [4]
1 | Cc1sc2c(c1C)C(c1ccc(Cl)cc1)=N[C@@H](CC(=O)OC(C)(C)C)c1nnc(C)n1-2 [JQ1] | no increase | Significant activation was not observed | Neither polyamide alone (3), nor JQ1, nor the unconjugated treatment induced increased production of FXN protein | 
2 | Cc1sc2c(c1C)C(c1ccc(Cl)cc1)=N[C@@H](CC(=O)NCCOCCOCCOCCOCCOCCOCCC(=O)NCCCN(C)CCCNC(=O)CCNC(=O)c1cc(NC(=O)c3cc(NC(=O)c4nc(NC(=O)c5cc(NC(=O)CCCNC(=O)c6nc(NC(=O)c7cc(NC(=O)c8cc(NC(=O)c9sccc9Cl)cn8C)cn7C)cn6C)cn5C)cn4C)cn3C)cn1C)c1nnc(C)n1-2 [Control Conjugate 2] | no increase |  |  | increase in FXN protein
